The subject of data set [1] is Murine cultured B16 melanoma cells. The data set can be described thus: Melanin generation/formation suppression test based on cell culture (degree of whiteness). Set-up: key: ++: distinctively stronger whiteness over the reference; +: apparently stronger whiteness over the reference; ±: slightly stronger whiteness over the reference; −: remained unchanged. As for the experimental part:
Murine cultured B16 melanoma cells were used. An appropriate quantity of a 10% FBS-containing MEM medium was placed in two 6-well plates, the B16 melanoma cells were seeded therein and allowed to stand at 37° C. under a carbon dioxide concentration of 5 vol %. Next day, a sample preparation solution was added and mixed therewith so as to adjust the final concentrations of the Cistus ladaniferus L. extract obtained in Example 1, and labdenic acids and methyl esters and ethyl esters thereof obtained in Example 2 to 0 (reference), 5 and 10 μg/mL, and of lily extract (product of Maruzen Pharmaceuticals Co., Ltd.), which is a known whitening agent, to 0 and 100 μg/mL. The medium was exchanged on the fifth day of culture, and the sample preparation solution was added again. The medium was removed next day, the cells were collected from one plate after washing them using a phosphate buffer (pH7), and degree of whitening of the cultured B16 melanoma cells was evaluated according to the criteria shown below. […]
• ++: distinctively stronger whiteness over the reference; • +: apparently stronger whiteness over the reference; • ±: slightly stronger whiteness over the reference; and • −: remained unchanged.
Murine cultured B16 melanoma cells were used. An appropriate quantity of a 10% FBS-containing MEM medium was placed in two 6-well plates, the B16 melanoma cells were seeded therein and allowed to stand at 37° C. under a carbon dioxide concentration of 5 vol %. Next day, a sample preparation solution was added and mixed therewith so as to adjust the final concentrations of the Cistus ladaniferus L. extract obtained in Example 1, and labdenic acids and methyl esters and ethyl esters thereof obtained in Example 2 to 0 (reference), 5 and 10 μg/mL, and of Glycyrrhiza glabra extract (product of Maruzen Pharmaceuticals Co., Ltd.), which is a known whitening agent, to 0 and 100 μg/mL. The medium was exchanged on the fifth day of culture, and the sample preparation solution was added again. The medium was removed next day, the cells were collected from one plate after washing them using a phosphate buffer (pH7), and degree of whitening of the cultured B16 melanoma cells was evaluated according to the criteria shown below.

Data set [2] relates to Human neonatal fibroblast NB1RGB. In words: Cell activation test based on cell culture (cell proliferation ratio). As for the experimental part: Human neonatal fibroblast NB1RGB was used. An appropriate quantity of medium was placed in a 24-well plate, the fibroblast NB1RGB was seeded therein and allowed to stand at 37 ° C. under a carbon dioxide concentration of 5 vol %. Next day, a sample preparation solution was added and mixed therewith so as to adjust the final concentrations of the Cistus ladaniferus L. extract obtained in Example 1, and labdenic acids and methyl esters and ethyl esters thereof obtained in Example 2 to 0 (reference), 5 and 10 μg/mL, and of Panax ginseng extract (product of Maruzen Pharmaceuticals Co., Ltd.), which is a known cell activator, to 0 and 100 μg/mL. The medium was exchanged on the fourth day of culture, and the sample preparation solution was added again. The medium was removed next day, the cells were washed using a phosphate buffer and collected, and evaluated in terms of cell proliferation rate based on comparison of the number of fibroblast NB1RGB cells grown in the individual sample preparation solutions with that of the reference. […]
The number of cells grown in each sample preparation solution was compared with the number of cells of the reference, and cell activation effect was evaluated using cell proliferation ratio as an index. The number of cells was counted using a blood cell counter plate.
Human neonatal fibroblast NB1RGB was used. An appropriate quantity of medium was placed in a 24-well plate, the fibroblast NB1RGB was seeded therein and allowed to stand at 37 ° C. under a carbon dioxide concentration of 5 vol %. Next day, a sample preparation solution was added and mixed therewith so as to adjust the final concentrations of the Cistus ladaniferus L. extract obtained in Example 1, and labdenic acids and methyl esters and ethyl esters thereof obtained in Example 2 to 0 (reference), 5 and 10 μg/mL, and of cactus extract, which is a known cell activator, to 0 and 100 μg/mL. The medium was exchanged on the fourth day of culture, and the sample preparation solution was added again. The medium was removed next day, the cells were washed using a phosphate buffer and collected, and evaluated in terms of cell proliferation rate based on comparison of the number of fibroblast NB1RGB cells grown in the individual sample preparation solutions with that of the reference.

Data set [3] concerns Murine cultured B16 melanoma cells. In words: Cell survival rate test based on cell culture (crystal violet). As to conditions: mouse, 5 days, 10 μg/mL. As for the experimental part: Murine cultured B16 melanoma cells were used. An appropriate quantity of a 10% FBS-containing MEM medium was placed in two 6-well plates, the B16 melanoma cells were seeded therein and allowed to stand at 37° C. under a carbon dioxide concentration of 5 vol %. Next day, a sample preparation solution was added and mixed therewith so as to adjust the final concentrations of the Cistus ladaniferus L. extract obtained in Example 1, and labdenic acids and methyl esters and ethyl esters thereof obtained in Example 2 to 0 (reference), 5 and 10 μg/mL, and of lily extract (product of Maruzen Pharmaceuticals Co., Ltd.), which is a known whitening agent, to 0 and 100 μg/mL. The medium was exchanged on the fifth day of culture, and the sample preparation solution was added again. The medium was removed next day, the cells were collected from one plate after washing them using a phosphate buffer (pH7), and degree of whitening of the cultured B16 melanoma cells was evaluated according to the criteria shown below.
On the other plate, the cells were fixed with formalin, and dyed by adding an 1% crystal violet solution. Cell survival rates for the individual sample concentrations were measured using a monocellator (product of Olympus Corporation).
Murine cultured B16 melanoma cells were used. An appropriate quantity of a 10% FBS-containing MEM medium was placed in two 6-well plates, the B16 melanoma cells were seeded therein and allowed to stand at 37° C. under a carbon dioxide concentration of 5 vol %. […] The medium was removed next day, the cells were collected from one plate after washing them using a phosphate buffer (pH7), and degree of whitening of the cultured B16 melanoma cells was evaluated according to the criteria shown below.

Data set [4] has the same test system. In words: Melanin generation/formation suppression test based on cell culture (degree of whiteness). Set-up: key: ++: distinctively stronger whiteness over the reference; +: apparently stronger whiteness over the reference; ±: slightly stronger whiteness over the reference; −: remained unchanged. This is another data set of the same source.
The mark [5] stands for this setting: final concentration 5 μg/mL + lily extract 100 μg/mL.
Setting [6] is: final concentration 10 μg/mL, lily extract 0 μg/mL.
The mark [7] stands for this setting: final concentration 5 μg/mL + Panax ginseng extract 100 μg/mL.
The mark [8] stands for this setting: final concentration 5 μg/mL, additional concentration of cactus extract 100 μg/mL, vs reference.
[9] abbreviates: final concentration 10 μg/mL, Panax ginseng extract 0 μg/mL.
The mark [10] stands for this setting: final concentration 10 μg/mL, cactus extract 0 μg/mL, vs reference.
[11] abbreviates: final concentration 5 μg/mL + Glycyrrhiza glabra extract 100 μg/mL.
Where [12] appears, read: final concentration 10 μg/mL, Glycyrrhiza glabra extract 0 μg/mL.

For the molecule `CC1=C(CCC(C)CC(=O)O)C2(C)CCCC(C)(C)C2CC1` (stereo not drawn) [Compound 1, labd-8-en-15-oic acid], the Degree of whiteness entry is “++” in data set [1] (setting [5]), “+” in data set [1] (setting [6]), “++” in data set [4] (setting [11]) and “+” in data set [4] (setting [12]). For the same molecule, the Cell-activation rate in data set [2] (setting [7]) worked out at 329%; in data set [2] (setting [8]), 310%; in data set [2] (setting [9]) it was 128%; in data set [2] (setting [10]), 128%. Further, in data set [3], the Cell survival rate is 94%.

Regarding `CC1=CCC2C(C)(C)CCCC2(C)C1CCC(C)CC(=O)O` (stereo not drawn) [Compound 4, labd-7-en-15-oic acid], the Degree of whiteness entry in data set [1] (setting [5]) is reported as “++”; in data set [1] (setting [6]), “+”; in data set [4] (setting [11]), “++”; in data set [4] (setting [12]), “+”. Also, the Cell-activation rate came to 322% in data set [2] (setting [7]), 315% in data set [2] (setting [8]), 130% in data set [2] (setting [9]) and 130% in data set [2] (setting [10]). This molecule also displayed a Cell survival rate in data set [3] of 93%.

For the molecule `C=C1CCC2C(C)(C)CCCC2(C)C1CCC(C)CC(=O)O` (stereo not drawn) [Compound 7, labd-8(17)-en-15-oic acid], the Degree of whiteness entry is “++” in data set [1] (setting [5]), “+” in data set [1] (setting [6]), “++” in data set [4] (setting [11]) and “+” in data set [4] (setting [12]). The Cell-activation rate in data set [2] (setting [7]) is 333%; in data set [2] (setting [8]), 170%; in data set [2] (setting [9]) it was 135%; in data set [2] (setting [10]), 135%. Further, the Cell survival rate in data set [3] is 98%.

The values are drawn from patent US20060147397A1, “Composition for preparation for external use on skin and method of using the same” (Kose Corporation, priority 2002, published 2006).
